Measured values published in patent publication US20250075176A1, “COMPOSITIONS COMPRISING HISTONE […] INHIBITORS OR REVERSE TRANSCRIPTASE INHIBITORS AND USE THEREOF” (FOREVE LABS LTD., priority 2022, published 2025).

What was measured:
older oocytes = details: aged animals, previously shown; cited from earlier work
old mouse oocytes = assay: In vitro maturation of old mouse oocytes in medium supplemented with drug; format: cell-based; details: for ability to induce maturation (first polar body extrusion and proper chromosome division): IVM media (a-MEM) with inhibitor, 24 hours, curcumin positive control, FIG. 9C-9D
Excerpt: (§1) Mouse oocyte in vitro maturation: After Euthanasia, ovaries were collected and dissected in L-15 medium (011151A) and supplemented with 200 um IBMX (17018) to prevent meiotic progression. Prophase I arrested oocytes were identified by visualization of the typical germinal vesicle and collected under a binocular using a Stripper (MD-MXL3-STR-CGR). After collection, oocytes were transferred into a-MEM medium (22561021) supplemented with IBMX covered with Mineral oil (M8410-11) to prevent evaporation, for recovery time of 25 min at 37° in a 5% CO2 incubator, and then washed in IBMX free a-MEM medium to initiate meiosis. The oocytes were incubated in a-MEM under oil in the incubator for 6 hours for prophase I or incubated for 19 hours for metaphase II. To assess maturation rates, oocytes were incubated for 19 hours after release and then fixed and stained by Hoechst to examine the entry into the second meiotic division. See below amendments for drug treatments.
Drug treatments: Ovaries were collected and dissected in L-15 medium supplemented with 200 um IBMX to prevent meiotic progression as described above. Prophase I arrested oocytes were collected using a Stripper as described above. After collection, oocytes were transferred to a-MEM medium supplemented with IBMX +the desired drug covered with Mineral oil to prevent evaporation, for 4 hours at 37° in a 5% CO2 incubator (Since Chaetocin and IBMX have a cross reactivity with each other, the pause was not performed in Chaetocin experiments). After the pause, oocytes were washed in IBMX-free a-MEM that contains the drug to initiate meiosis. 19 hours after oocytes were released from IBMX, oocytes were fixed in PFA, permeabilized, and sealed as described above. Chaetocin is a hazarzous substance. For biosafety reasons, Chaetocin supplemented plates and matched controls were placed in a sealed chamber during incubation time.
It was next tested if similar results could be achieved without genetic manipulation. Old oocytes were treated with two different naturally occurring histone acetyltransferase (HAT) inhibitors: curcumin and garcinol. As a negative control, oocytes were given vehicle only. […] Next, a broader panel of naturally occurring HAT inhibitors were tested along with another reverse transcriptase (RT) inhibitor (FIG. 9C). As before, old oocytes were incubated in IVM media (a-MEM) supplemented with the inhibitors for 24 hours and maturation was measured. Oocytes with both first polar body extrusion and proper division of chromosomes (as evaluated by Hoechst staining) were considered as mature. Curcumin was used as a positive control.

PCAF = PCAF (Homo sapiens, UniProt Q92831); details: cited from earlier work
human oocytes = assay: Human oocyte IVM with HAT or RT inhibitor supplementation; format: cell-based; details: oocytes from young fertility preservation patients, Sage medium with LH and FSH, FIG. 11
Protocol: Human IVM protocol: Germinal vesicle (GV) oocytes were subjected to IVM in a Sage medium (A1-rad Medical) supplemented with 0.075 IU/mL luteinizing hormone (LH) and 0.075 IU/mL follicle stimulating hormone (FSH) overnight. HAT and/or RT inhibitors were added to the overnight culture in some experiments. All naked oocytes that were found were transferred for up to 48 hours of incubation in oocyte maturation medium (Sage In-Vitro Fertilization) supplemented with 0.075 IU/mL human menopausal gonadotropin (hMG) (Menopur, Ferring Pharmaceuticals). HAT and/or RT inhibitors were added to the 48-hour culture in some experiments. After 24 hours of incubation, the media was searched for mature oocytes that were immediately frozen. The media were then incubated for another 24 hours and searched again for other mature oocytes.
To also look at non-arrested human oocytes, we investigated the behavior of another cohort of human oocytes extracted from patients undergoing gonadotoxic treatment and therefore undergoing fertility preservation. In these cases, when hormonal induction and oocyte extraction are not possible due to the young age of the patient or social reasons, ovary surgical extraction is performed. After extraction, ovaries are dissected in medium in the IVF lab, and ovary tissue is cryopreserved. After remission, ovary tissue can be transplanted, and IVF performed. […]

[1] = Acidity of the molecule and effect on medium pH; format: physicochemical
Excerpt: The pH of the medium used was around 7.3 with buffering capacity between 6.9 and 7.6. […] This acidity interfered with maturation and indeed in the case of the two strongly acidic molecules inhibited it. Medium with a greater buffering capacity or a different concentration of these acidic molecules will allow for HAT inhibition induced maturation improvement.

H3K9me2 [2] = assay: In situ staining intensity for H3K9me2 (heterochromatin) in old oocytes; format: cell-based, mouse; details: aged oocytes cultured with SRT-1720, FIG. 8G
Protocol: Mouse oocytes collection for in situ immunofluorescence: After Euthanasia, ovaries were collected and dissected in M2 medium (M7167). Oocytes were collected from pool of 3 animals at least (numbers of each experiment are noted in legend). Prophase I arrested oocytes were collected under a binocular using a Stripper and washed in hyaluronidase (H4272-30 MG) to remove granulosa cells and acidic Tyrode's Solution (T1788) to remove the Zona Pellucida. The oocytes were fixed using PFA 4% (15710) for 20 min, and then quenched in PBS supplemented with 10 mM glycine and 1% BSA.
(§2) In situ immunofluorescence: Permeabilization was performed using 0.1% Triton X-100. Cells were cultured in PBS contains 5% BSA for blocking, and first and secondary antibodies were diluted in 0.1 Tween 20 (P9416)/PBS containing 5% BSA. The immune-stained cells were mounted in Vectashield (H-1000) mounting medium containing 80 nM of Hoechst (33342) and sealed on a slide using an Imaging spacer (GBL654002).
Imaging and quantification: Oocytes were imaged using the Ti-Eclipse Nikon system, with an Andor Zyla nsc05537 camera. […] Every cell was imaged at multiple planes. In order to analyze the images in a quantitatively, a projection of maximum intensity was created. To measure staining intensity, every assessed region was normalized to an equal-size region in the background (outside the area of interest). […]

H3K9me2 [3] = assay: H3K9me2 staining in treated young oocytes; format: cell-based, mouse; details: TSA 100 nm, 4 h arrest then 18 h until MII
Protocol: Chromosome spread and immunofluorescence: Prophase I arrested oocytes were collected from ovaries as above and incubated for 6 hours to reach the first prophase or for 17 hours to reach second meiosis prophase as described above. Matured oocytes were washed in M2 medium and then in acidic Tyrode's Solution to remove the Zona Pellucida. 15 min before the desired time for chromosome spread, oocytes were kept in hypotonic solution, composed of FBS (F7524) diluted in DDW in 1:1 ratio. Oocytes were then spread in spreading solution (1% PFA buffered to 9.2 pH, supplemented with 0.15% Triton X-100and 0.03% […]) on Superfrost plus slides (32090003). To assess ploidy, prophase II spreads were stained with Hoechst to visualize chromatin and CREST to visualize the centromeres, and the imaged chromosome were manually counted.
In situ immunofluorescence: Permeabilization was performed using 0.1% Triton X-100. […]
Imaging and quantification: Oocytes were imaged using the Ti-Eclipse Nikon system, with an Andor Zyla nsc05537 camera. […] In order to analyze the images in a quantitatively, a projection of maximum intensity was created. To measure staining intensity, every assessed region was normalized to an equal-size region in the background (outside the area of interest). […]

L1-encoded ORF1p = assay: In situ immunofluorescence for L1-ORF1p in treated young oocytes; format: cell-based, mouse; details: TSA 100 nm
Protocol: as §2
(§3) Imaging and quantification: Oocytes were imaged using the Ti-Eclipse Nikon system, with an Andor Zyla nsc05537 camera. […] Every cell was imaged at multiple planes. In order to analyze the images in a quantitatively, a projection of maximum intensity was created. To measure staining intensity, every assessed region was normalized to an equal-size region in the background (outside the area of interest). The intensity score was generated by dividing the intensity in the area of interest by that of the background.
(§4) Drug treatments: Ovaries were collected and dissected in L-15 medium supplemented with 200 um IBMX to prevent meiotic progression as described above. Prophase I arrested oocytes were collected using a Stripper as described above. […]

Rad51 = Rad51 nuclear localization (DNA damage response) in treated young oocytes; format: cell-based, mouse; details: TSA 100 nm
Protocol: as §2, §3, §4

H3K4me3 = assay: In situ staining for H3K4me3 in treated young oocytes; format: cell-based, mouse; details: TSA 100 nm
Protocol: as §2, §3, §4

H3K27Ac = assay: In situ staining for H3K27Ac in treated young oocytes; format: cell-based, mouse; details: TSA 100 nm, 4 h arrest then 18 h until MII
Protocol: as §2, §3, §4

young mouse oocytes = assay: In vitro maturation of young mouse oocytes treated with epigenetic drugs; format: cell-based; details: 2-month-old oocytes, Chaetocin 0.5 μM 18 h, FIG. 7A
Excerpt: as §1, §4

PCAF, sequence (Q92831 whole entry, species assumed): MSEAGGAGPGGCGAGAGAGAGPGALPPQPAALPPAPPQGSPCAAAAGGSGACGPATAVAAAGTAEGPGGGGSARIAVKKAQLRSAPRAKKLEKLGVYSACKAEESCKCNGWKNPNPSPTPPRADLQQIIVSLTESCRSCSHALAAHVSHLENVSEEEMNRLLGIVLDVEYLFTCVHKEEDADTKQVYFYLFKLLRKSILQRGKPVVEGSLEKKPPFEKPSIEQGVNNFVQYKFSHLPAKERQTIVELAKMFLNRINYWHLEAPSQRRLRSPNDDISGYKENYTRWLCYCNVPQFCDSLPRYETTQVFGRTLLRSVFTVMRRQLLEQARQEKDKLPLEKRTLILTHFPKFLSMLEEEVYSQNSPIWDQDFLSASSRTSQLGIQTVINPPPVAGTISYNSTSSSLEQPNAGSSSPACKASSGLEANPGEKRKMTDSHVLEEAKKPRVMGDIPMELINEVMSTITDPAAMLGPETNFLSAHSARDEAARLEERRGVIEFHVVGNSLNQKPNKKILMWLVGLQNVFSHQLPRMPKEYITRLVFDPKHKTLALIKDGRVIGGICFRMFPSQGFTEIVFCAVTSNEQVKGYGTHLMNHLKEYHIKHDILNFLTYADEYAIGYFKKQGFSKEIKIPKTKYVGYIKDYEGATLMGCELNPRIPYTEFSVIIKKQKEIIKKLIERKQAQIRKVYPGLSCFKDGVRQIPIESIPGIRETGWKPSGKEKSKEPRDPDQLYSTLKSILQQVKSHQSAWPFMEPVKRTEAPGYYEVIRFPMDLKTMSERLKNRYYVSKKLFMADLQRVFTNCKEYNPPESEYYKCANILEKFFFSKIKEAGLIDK

Structure (SMILES): NC(=O)c1ccc[n+]([C@@H]2O[C@H](COP(=O)([O-])OP(=O)(O)OC[C@H]3O[C@@H](n4cnc5c(N)ncnc54)[C@H](O)[C@@H]3O)[C@@H](O)[C@H]2O)c1 [NAD+, nicotinamide adenine dinucleotide]
- oocyte quality (older oocytes): rejuvenated oocyte quality

Structure (SMILES): COc1cc(/C=C/C(=O)CC(=O)/C=C/c2ccc(O)c(OC)c2)ccc1O [Curcumin]
- maturation rate at the highest dose (old mouse oocytes; old oocytes, curcumin 10 um, FIG. 9A): over 80%
- maturation rate versus vehicle (old mouse oocytes; old oocytes, vehicle-only negative control, FIG. 9A-9B): dose dependent increase
- PCAF inhibition (PCAF): do not
- maturation ability of human oocytes (human oocytes): did not impair their maturation ability and even increased it

Structure (SMILES): CC(C)=CCC[C@]1(C)C=Cc2c(O)c3c(c(CC=C(C)C)c2O1)O[C@]12C(=C[C@@H]4C[C@H]1C(C)(C)O[C@@]2(C/C=C(/C)C(=O)O)C4=O)C3=O [gambogic acid]
- ability to induce maturation (first polar body extrusion and proper chromosome division) (old mouse oocytes; old oocytes): did not produce increased maturation
- acidity [1]: highly acidic
- PCAF inhibition (PCAF): strongly inhibit

Structure (SMILES): O=C(Nc1ccccc1-c1cn2c(CN3CCNCC3)csc2n1)c1cnc2ccccc2n1 [SRT-1720]
- maturation ability of treated cells (old mouse oocytes; aged oocytes cultured with SRT-1720, FIG. 8H): recovered maturation ability
- heterochromatin (H3K9me2 staining intensity) (H3K9me2 [2]): heterochromatin elevation

Structure (SMILES): CCCCCCCCCCCCCCCc1cccc(O)c1C(=O)O [anacardic acid]
- ability to induce maturation (first polar body extrusion and proper chromosome division) (old mouse oocytes; old oocytes): did not produce increased maturation
- acidity [1]: highly acidic
- PCAF inhibition (PCAF): strongly inhibit

Structure (SMILES): O=C(O[C@@H]1Cc2c(O)cc(O)cc2O[C@@H]1c1cc(O)c(O)c(O)c1)c1cc(O)c(O)c(O)c1 [EGCG, Epigallocatechin gallate]
- ability to induce maturation (first polar body extrusion and proper chromosome division) (old mouse oocytes; old oocytes): did not produce increased maturation
- acidity [1]: more weakly acidic

Structure (SMILES): CC1=CC(=O)c2c(O)cccc2C1=O [Plumbagin]
- ability to induce maturation (first polar body extrusion and proper chromosome division) (old mouse oocytes; old oocytes): comparable to curcumin
- PCAF inhibition (PCAF): do not

Structure (SMILES): CC(/C=C/C(=O)NO)=C\[C@@H](C)C(=O)c1ccc(N(C)C)cc1 [TSA, Trichostatin A]
- H3K9me2 in situ staining (H3K9me2 [3]): decrease
- L1-ORF1p localization (L1-encoded ORF1p): accumulates in nuclei
- L1-encoded ORF1p overall signal level (L1-encoded ORF1p): do not show a L1-encoded ORF1p elevation
- DNA damage response (Rad51 nuclear localization) (Rad51): elevated
- staining for H3K4me3 (H3K4me3): unchanged
- H3K27Ac in situ staining (H3K27Ac): increase

Structure (SMILES): CN1C(=O)[C@@]23C[C@]4([C@]56C[C@@]78SS[C@@](CO)(C(=O)N7[C@H]5Nc5ccccc56)N(C)C8=O)c5ccccc5N[C@@H]4N2C(=O)[C@]1(CO)SS3 [Chaetocin]
- reduction in oocytes that properly mature (young mouse oocytes): 18%
